Laboratory results from patent publication US20100196586A1, “FOODSTUFF COMPOSITION TO IMPROVE DIGESTIBILITY OF FOODSTUFF LIPIDS” (ISL-INNOVATION SANTE LIPIDES, priority 2007, published 2010).
Values belong to the molecule of their own block, whether it stands above or below them.

Columns and labels:
[1] = test system: gastric lipase; assay: Gastric lipolysis of triolein emulsions stabilized by phospholipids, with purified gastric lipases or gastric juices; type: biochemical, human
Excerpt: (§1) The compounds have been tested in vitro in different experimental conditions for their ability to promote the action of three major lipolytic enzymes of the digestive tract, i.e., gastric lipase, colipase-dependent pancreatic lipase, bile salt stimulated lipase (BSSL), and their isoforms and variants.
(§2) Different lipidic emulsions have been prepared by sonication of a mixture of triolein (TO) (98.7%), cholesterol (0.5%) and phospholipids (0.8%).
(§3) The lipolysis tests have been carried out in vitro in conditions that mimic the physiology of the human digestive tract, either healthy or with pancreatic insufficiency (PI).
Gastric lipolysis in the presence of gastric lipase has been carried out with purified lipases or gastric juices from different subjects at pH 5.40, at 37° C. for 60 minutes with a gastric lipase (U/mL)/lipids (micromoles of TO) ratio of 2.
(§4) Lipolysis by the three main digestive tract lipases has also been tested in more complex conditions, i.e. in the presence of lipidic emulsions with a mixture of proteins plus lactose added in proportions that are found in normal or medically assisted nutrition.

[2] = test system: bile salt stimulated lipase (BSSL); assay: Intestinal lipolysis of triolein emulsions by bile salt stimulated lipase; type: biochemical, human
Excerpt: as §1, §2, §3
[…] Several variants of BSSL have been tested, numbered 1 to 8.
as §4

[3] = target: T1, colipase dependent pancreatic lipase (Sus scrofa, UniProt P00591); assay: Intestinal lipolysis of triolein emulsions by colipase dependent pancreatic lipase or pancreatine; type: biochemical, pig; settings: for yield of pancreatic lipolysis (percentage of hydrolysis) compared with PC P/O emulsion: normal physiological conditions, two forms of pig pancreatic lipase (pure lipase or powder of pancreas), FIG. 3
T1 sequence (P00591 1-450): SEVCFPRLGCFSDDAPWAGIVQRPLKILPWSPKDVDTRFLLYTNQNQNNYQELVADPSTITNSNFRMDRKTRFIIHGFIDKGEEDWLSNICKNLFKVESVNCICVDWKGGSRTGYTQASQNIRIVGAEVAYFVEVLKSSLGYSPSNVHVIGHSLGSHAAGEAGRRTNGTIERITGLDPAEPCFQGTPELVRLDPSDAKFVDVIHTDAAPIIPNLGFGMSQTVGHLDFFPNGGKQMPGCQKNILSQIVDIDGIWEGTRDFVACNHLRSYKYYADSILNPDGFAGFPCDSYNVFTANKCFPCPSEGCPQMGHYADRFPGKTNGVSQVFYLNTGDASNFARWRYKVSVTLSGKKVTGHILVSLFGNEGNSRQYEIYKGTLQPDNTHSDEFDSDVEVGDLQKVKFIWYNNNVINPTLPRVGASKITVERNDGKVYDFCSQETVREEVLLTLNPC
T1 sequence (P02703 23-112 partner): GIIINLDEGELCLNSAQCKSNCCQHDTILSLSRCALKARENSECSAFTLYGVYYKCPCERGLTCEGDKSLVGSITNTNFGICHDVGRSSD
Excerpt: as §1, §2, §3
Intestinal lipolysis in the presence of colipase dependent pancreatic lipase (lipase/colipase 1/1 molar ratio) or of pig pancreatic extract (pancreatine) was conducted at pH […] at 37° C. for 15 minutes, with a pancreatic lipase (U/mL)/micromoles of TO ratio of 20, and in the presence of pig bile in sufficient quantity for a bile salt concentration of 2 or 8 mM.
as §4

[4] = cited from earlier work
[5] = gastric juices of subject, pH 5.40, 37° C., 60 minutes, FIG. 1
[6] = conditions of pancreatic insufficiency, mixture of pure bile salts, FIG. 6
[7] = gastric juices of different subjects, irrespective of the origin of gastric juice, FIG. 2

Molecule: CCCCCCCC/C=C\CCCCCCCC(=O)OC[C@@H](O)COP(=O)(O)O [LPAo, oleyl lysophosphatidic acid]
yield of gastric lipolysis (percentage of hydrolysis) compared with the control CT emulsion [1, 5]: significantly higher

Molecule: egg-derived lysophosphatidylcholine [LPCO]
yield of lipolysis by BSSL (percentage of hydrolysis) compared with PC P/O emulsion [2, 6]: significantly higher
yield of lipolysis by BSSL (percentage of hydrolysis) compared with PC P/O emulsion ([2]; normal conditions, FIG. 4): significantly higher
yield of gastric lipolysis (percentage of hydrolysis) compared with the control CT emulsion [1, 7]: significantly higher
yield of gastric lipolysis (percentage of hydrolysis) compared with the control CT emulsion [1, 5]: significantly higher

Molecule: lysophosphatidylserine [LPS]
yield of pancreatic lipolysis (percentage of hydrolysis) compared with PC P/O emulsion [3]: significantly higher

B1: recombinant gastric lipase: recombinant dog gastric lipase (Merispase, Meristem) (protein, UniProt P80035 20-398, looked up)
Gastric triacylglycerol lipase: LFGKLHPTNPEVTMNISQMITYWGYPAEEYEVVTEDGYILGIDRIPYGRKNSENIGRRPVAFLQHGLLASATNWISNLPNNSLAFILADAGYDVWLGNSRGNTWARRNLYYSPDSVEFWAFSFDEMAKYDLPATIDFILKKTGQDKLHYVGHSQGTTIGFIAFSTNPKLAKRIKTFYALAPVATVKYTETLLNKLMLVPSFLFKLIFGNKIFYPHHFFDQFLATEVCSRETVDLLCSNALFIICGFDTMNLNMSRLDVYLSHNPAGTSVQNVLHWSQAVKSGKFQAFDWGSPVQNMMHYHQSMPPYYNLTDMHVPIAVWNGGNDLLADPHDVDLLLSKLPNLIYHRKIPPYNHLDFIWAMDAPQAVYNEIVSMMGTDNK
increase of the absorption level of lipids ([4]; administered together with pancreatic extracts, in 7 of the 11 patients studied): 17%
rate of absorption of lipids ([4]; subjects suffering from cystic fibrosis, alone, 600 mg/day, 28% without supplement): 50%

Second part, led by results:

yield of lipolysis by BSSL (percentage of hydrolysis) compared with PC P/O emulsion [2, 6]: significantly higher
yield of lipolysis by BSSL (percentage of hydrolysis) compared with PC P/O emulsion ([2]; normal conditions, FIG. 4): significantly higher
Molecule: DHA phosphatidylethanolamine [PE DHA]

activator effect in the presence of a mixture of protein plus lactose ([2]; BSSL, complex environment compared with simple emulsion): identical or even maximized
yield of lipolysis by BSSL (percentage of hydrolysis) compared with PC P/O emulsion [2, 6]: significantly higher
activator effect on different variants of BSSL (1 to 8) compared with PC P/O ([2]; normal conditions (A) or conditions of pancreatic insufficiency (B), efficacy varies with type of BSSL, FIG. 11): confirmed
yield of lipolysis by BSSL (percentage of hydrolysis) compared with PC P/O emulsion ([2]; normal conditions, FIG. 4): significantly higher
yield of lipolysis by BSSL (percentage of hydrolysis) compared with PC P/O and complex PC P/O ([2]; purified human BSSL, pH 7.00, bile salts 8 mM (normal) or 2 mM (pancreatic insufficiency), with or without lactose and milk proteins, FIG. 9): significantly higher
yield of gastric lipolysis (percentage of hydrolysis) compared with PC P/O and complex PC P/O ([1]; different human gastric juices, simple emulsions and complex emulsions (lactose and milk proteins), FIG. 7): significantly higher
yield of gastric lipolysis (percentage of hydrolysis) compared with the control CT emulsion [1, 7]: significantly higher
yield of gastric lipolysis (percentage of hydrolysis) compared with the control CT emulsion [1, 5]: significantly higher
activator effect in the presence of a mixture of protein plus lactose ([1]; gastric lipase, complex environment compared with simple emulsion): identical or even maximized
quantity at which the activator effect seems optimal ([1]; gastric lipolysis of LHO/LPI emulsions, dose dependent): 0.8 % of total lipids
effect on gastric lipase degraded at its N-terminal end (yield of gastric lipolysis vs CT and/or PC P/O) ([1]; purified gastric lipases or juices of different subjects with different degrees of N-terminal degradation, FIG. 10): reactivates degraded gastric lipase
yield of pancreatic lipolysis (percentage of hydrolysis) compared with PC P/O ([3]; conditions of pancreatic insufficiency, purified lipase, intestinal pH values typical of pancreatic insufficiency, FIG. 5): significantly higher
yield of pancreatic lipolysis (percentage of hydrolysis) compared with PC P/O emulsion [3]: significantly higher
activator effect in the presence of a mixture of protein plus lactose ([3]; pancreatic lipase, complex environment compared with simple emulsion): identical or even maximized
Molecule: lysophosphatidylinositol [LPI]
effect of the dose of LPI on the yield of gastric lipolysis of the LHO emulsion ([1]; LPI 0.1, 0.4 and 0.8% of total lipids, total phospholipids 0.8% of total lipids, gastric juices of subjects, FIG. 12): increase with increasing concentrations of LPI
